# According to patent US20120270237A9, “METHODS FOR THE IDENTIFICATION OF KINASE INTERACTING MOLECULES AND FOR THE PURIFICATION OF KINASE PROTEINS” (Cellzone AG, priority 2009, published 2012):
# What was measured:
# Test in all cases: Kinobeads competition binding with immobilized CZC25342, mixed HeLa placenta lysates (Example 5, Table 7)
# [1] = target: T1, kinases from mixed HeLa placenta lysates (Homo sapiens, UniProt O43318); conditions: kinase MAP3K7; 10 μM free compound; HeLa Placenta lysate mix
# T1 construct: capturing and identification of kinases from mixed HeLa placenta lysates; endogenous in cells; host or cells: mixed lysate of HeLa cells and placenta tissue
# Experimental: (§1) To one aliquot of cell lysate 10 μM of the free compound (FIG. 2, CZC25342) was added and allowed to bind to proteins in the lysate. Then the affinity matrix with the immobilized compound was added to capture proteins that were not interacting with the previously added free compound. Beads were separated from the lysate and bead bound proteins were eluted in SDS sample buffer and subsequently separated by SDS-Polyacrylamide gel electrophoresis (FIG. 11). Suitable gel bands were cut out and subjected to in-gel proteolytic digestion with trypsin. The second lysate aliquot was processed identically, however no free compound was added (DMSO solvent control). Peptides originating from samples 1 and 2 were labeled with iTRAQ reagents (iTRAQ 114 and iTRAQ 117) and the combined samples were analyzed with a nano-flow liquid chromatography system coupled online to a tandem mass spectrometer (LC-MS/MS) experiment followed by iTRAQ reporter ion quantification in the MS/MS spectra as described in Example 2. The identified kinases are shown in Table 7 including the percent competition values for the sample to which 10 μM free compound had been added. In total of 83 different kinases were identified and competed by different degrees.
# [2] = target: T2, kinases from mixed HeLa placenta lysates (Homo sapiens, UniProt O75716); conditions: kinase MPSK1; 10 μM free compound; HeLa Placenta lysate mix
# T2 construct: capturing and identification of kinases from mixed HeLa placenta lysates; endogenous in cells; host or cells: mixed lysate of HeLa cells and placenta tissue
# Experimental: as §1
# [3] = target: T3, kinases from mixed HeLa placenta lysates (Homo sapiens, UniProt O94804); conditions: kinase LOK; 10 μM free compound; HeLa Placenta lysate mix
# T3 construct: capturing and identification of kinases from mixed HeLa placenta lysates; endogenous in cells; host or cells: mixed lysate of HeLa cells and placenta tissue
# Experimental: as §1
# [4] = target: T4, kinases from mixed HeLa placenta lysates (Homo sapiens, UniProt O95382); conditions: kinase MAP3K6; 10 μM free compound; HeLa Placenta lysate mix
# T4 construct: capturing and identification of kinases from mixed HeLa placenta lysates; endogenous in cells; host or cells: mixed lysate of HeLa cells and placenta tissue
# Experimental: as §1
# [5] = target: T5, kinases from mixed HeLa placenta lysates (Homo sapiens, UniProt P06493); conditions: kinase CDC2; 10 μM free compound; HeLa Placenta lysate mix
# T5 construct: capturing and identification of kinases from mixed HeLa placenta lysates; endogenous in cells; host or cells: mixed lysate of HeLa cells and placenta tissue
# Experimental: as §1
# [6] = target: T6, kinases from mixed HeLa placenta lysates (Homo sapiens, UniProt P07948); conditions: kinase LYN; 10 μM free compound; HeLa Placenta lysate mix
# T6 construct: capturing and identification of kinases from mixed HeLa placenta lysates; endogenous in cells; host or cells: mixed lysate of HeLa cells and placenta tissue
# Experimental: as §1
# [7] = target: T7, kinases from mixed HeLa placenta lysates (Homo sapiens, UniProt P23458); conditions: kinase JAK1; 10 μM free compound; HeLa Placenta lysate mix
# T7 construct: capturing and identification of kinases from mixed HeLa placenta lysates; endogenous in cells; host or cells: mixed lysate of HeLa cells and placenta tissue
# Experimental: as §1
# [8] = target: T8, kinases from mixed HeLa placenta lysates (Homo sapiens, UniProt P28482); conditions: kinase Erk2; 10 μM free compound; HeLa Placenta lysate mix
# T8 construct: capturing and identification of kinases from mixed HeLa placenta lysates; endogenous in cells; host or cells: mixed lysate of HeLa cells and placenta tissue
# Experimental: as §1
# [9] = target: T9, kinases from mixed HeLa placenta lysates (Homo sapiens, UniProt P36894); conditions: kinase BMPR1A; 10 μM free compound; HeLa Placenta lysate mix
# T9 construct: capturing and identification of kinases from mixed HeLa placenta lysates; endogenous in cells; host or cells: mixed lysate of HeLa cells and placenta tissue
# Experimental: as §1
# [10] = target: T10, kinases from mixed HeLa placenta lysates (Homo sapiens, UniProt P45983); conditions: kinase JNK1; 10 μM free compound; HeLa Placenta lysate mix
# T10 construct: capturing and identification of kinases from mixed HeLa placenta lysates; endogenous in cells; host or cells: mixed lysate of HeLa cells and placenta tissue
# Experimental: as §1
# [11] = target: T11, kinases from mixed HeLa placenta lysates (Homo sapiens, UniProt P45984); conditions: kinase JNK2; 10 μM free compound; HeLa Placenta lysate mix
# T11 construct: capturing and identification of kinases from mixed HeLa placenta lysates; endogenous in cells; host or cells: mixed lysate of HeLa cells and placenta tissue
# Experimental: as §1
# [12] = target: T12, kinases from mixed HeLa placenta lysates (Homo sapiens, UniProt P48426); conditions: kinase PIP5K2A; 10 μM free compound; HeLa Placenta lysate mix
# T12 construct: capturing and identification of kinases from mixed HeLa placenta lysates; endogenous in cells; host or cells: mixed lysate of HeLa cells and placenta tissue
# Experimental: as §1
# [13] = target: T13, kinases from mixed HeLa placenta lysates (Homo sapiens, UniProt P68400); conditions: kinase CK2a1; 10 μM free compound; HeLa Placenta lysate mix
# T13 construct: capturing and identification of kinases from mixed HeLa placenta lysates; endogenous in cells; host or cells: mixed lysate of HeLa cells and placenta tissue
# Experimental: as §1
# [14] = target: T14, kinases from mixed HeLa placenta lysates (Homo sapiens, UniProt P78527); conditions: kinase DNAPK; 10 μM free compound; HeLa Placenta lysate mix
# T14 construct: capturing and identification of kinases from mixed HeLa placenta lysates; endogenous in cells; host or cells: mixed lysate of HeLa cells and placenta tissue
# Experimental: as §1
# [15] = target: T15, kinases from mixed HeLa placenta lysates (Homo sapiens, UniProt Q04771); conditions: kinase ALK2; 10 μM free compound; HeLa Placenta lysate mix
# T15 construct: capturing and identification of kinases from mixed HeLa placenta lysates; endogenous in cells; host or cells: mixed lysate of HeLa cells and placenta tissue
# Experimental: as §1
# [16] = target: T16, kinases from mixed HeLa placenta lysates (Homo sapiens, UniProt Q13976); conditions: kinase PKG1; 10 μM free compound; HeLa Placenta lysate mix
# T16 construct: capturing and identification of kinases from mixed HeLa placenta lysates; endogenous in cells; host or cells: mixed lysate of HeLa cells and placenta tissue
# Experimental: as §1
# [17] = target: T17, kinases from mixed HeLa placenta lysates (Homo sapiens, UniProt Q14289); conditions: kinase PYK2; 10 μM free compound; HeLa Placenta lysate mix
# T17 construct: capturing and identification of kinases from mixed HeLa placenta lysates; endogenous in cells; host or cells: mixed lysate of HeLa cells and placenta tissue
# Experimental: as §1
# [18] = target: T18, kinases from mixed HeLa placenta lysates (Homo sapiens, UniProt Q16513); conditions: kinase PKN2; 10 μM free compound; HeLa Placenta lysate mix
# T18 construct: capturing and identification of kinases from mixed HeLa placenta lysates; endogenous in cells; host or cells: mixed lysate of HeLa cells and placenta tissue
# Experimental: as §1
# [19] = target: T19, kinases from mixed HeLa placenta lysates (Homo sapiens, UniProt Q7KZI7); conditions: kinase MARK2; 10 μM free compound; HeLa Placenta lysate mix
# T19 construct: capturing and identification of kinases from mixed HeLa placenta lysates; endogenous in cells; host or cells: mixed lysate of HeLa cells and placenta tissue
# Experimental: as §1
# [20] = target: T20, kinases from mixed HeLa placenta lysates (Homo sapiens, UniProt Q8TBX8); conditions: kinase PIP5K2C; 10 μM free compound; HeLa Placenta lysate mix
# T20 construct: capturing and identification of kinases from mixed HeLa placenta lysates; endogenous in cells; host or cells: mixed lysate of HeLa cells and placenta tissue
# Experimental: as §1
# [21] = target: T21, kinases from mixed HeLa placenta lysates (Homo sapiens, UniProt Q96GD4); conditions: kinase AurB; 10 μM free compound; HeLa Placenta lysate mix
# T21 construct: capturing and identification of kinases from mixed HeLa placenta lysates; endogenous in cells; host or cells: mixed lysate of HeLa cells and placenta tissue
# Experimental: as §1
# [22] = target: T22, kinases from mixed HeLa placenta lysates (Homo sapiens, UniProt Q9H2G2); conditions: kinase SLK; 10 μM free compound; HeLa Placenta lysate mix
# T22 construct: capturing and identification of kinases from mixed HeLa placenta lysates; endogenous in cells; host or cells: mixed lysate of HeLa cells and placenta tissue
# Experimental: as §1
# [23] = target: T23, kinases from mixed HeLa placenta lysates (Homo sapiens, UniProt Q9H422); conditions: kinase HIPK3; 10 μM free compound; HeLa Placenta lysate mix
# T23 construct: capturing and identification of kinases from mixed HeLa placenta lysates; endogenous in cells; host or cells: mixed lysate of HeLa cells and placenta tissue
# Experimental: as §1
# [24] = target: T24, kinases from mixed HeLa placenta lysates (Homo sapiens, UniProt Q9NSY1); conditions: kinase BIKE; 10 μM free compound; HeLa Placenta lysate mix
# T24 construct: capturing and identification of kinases from mixed HeLa placenta lysates; endogenous in cells; host or cells: mixed lysate of HeLa cells and placenta tissue
# Experimental: as §1
# T10 sequence (P45983 whole entry): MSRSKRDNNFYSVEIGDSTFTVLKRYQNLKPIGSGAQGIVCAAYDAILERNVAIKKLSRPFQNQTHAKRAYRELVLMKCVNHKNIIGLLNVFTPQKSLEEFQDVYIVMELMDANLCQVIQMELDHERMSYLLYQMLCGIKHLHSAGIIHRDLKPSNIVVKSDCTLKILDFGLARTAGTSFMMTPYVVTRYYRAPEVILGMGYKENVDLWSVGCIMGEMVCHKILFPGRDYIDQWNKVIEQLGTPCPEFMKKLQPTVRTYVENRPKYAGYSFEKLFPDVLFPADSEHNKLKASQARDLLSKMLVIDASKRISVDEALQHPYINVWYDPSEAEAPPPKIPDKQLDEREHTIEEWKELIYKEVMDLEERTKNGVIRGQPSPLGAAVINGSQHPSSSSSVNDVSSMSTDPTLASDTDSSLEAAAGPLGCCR
# T6 sequence (P07948 whole entry): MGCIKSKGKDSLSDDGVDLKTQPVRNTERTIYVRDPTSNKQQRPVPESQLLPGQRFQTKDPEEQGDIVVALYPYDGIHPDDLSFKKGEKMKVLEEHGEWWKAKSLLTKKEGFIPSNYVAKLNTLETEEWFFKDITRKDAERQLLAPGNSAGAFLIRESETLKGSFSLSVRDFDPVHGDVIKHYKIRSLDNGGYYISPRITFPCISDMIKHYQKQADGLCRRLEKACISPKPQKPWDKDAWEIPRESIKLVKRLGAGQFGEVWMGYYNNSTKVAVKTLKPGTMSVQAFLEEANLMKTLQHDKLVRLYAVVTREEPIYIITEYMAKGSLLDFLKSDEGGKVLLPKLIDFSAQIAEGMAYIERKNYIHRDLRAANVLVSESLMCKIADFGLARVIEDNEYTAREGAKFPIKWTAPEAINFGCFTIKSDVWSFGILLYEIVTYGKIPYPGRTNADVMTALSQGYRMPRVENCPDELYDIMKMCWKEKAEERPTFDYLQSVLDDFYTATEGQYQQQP
# T24 sequence (Q9NSY1 whole entry): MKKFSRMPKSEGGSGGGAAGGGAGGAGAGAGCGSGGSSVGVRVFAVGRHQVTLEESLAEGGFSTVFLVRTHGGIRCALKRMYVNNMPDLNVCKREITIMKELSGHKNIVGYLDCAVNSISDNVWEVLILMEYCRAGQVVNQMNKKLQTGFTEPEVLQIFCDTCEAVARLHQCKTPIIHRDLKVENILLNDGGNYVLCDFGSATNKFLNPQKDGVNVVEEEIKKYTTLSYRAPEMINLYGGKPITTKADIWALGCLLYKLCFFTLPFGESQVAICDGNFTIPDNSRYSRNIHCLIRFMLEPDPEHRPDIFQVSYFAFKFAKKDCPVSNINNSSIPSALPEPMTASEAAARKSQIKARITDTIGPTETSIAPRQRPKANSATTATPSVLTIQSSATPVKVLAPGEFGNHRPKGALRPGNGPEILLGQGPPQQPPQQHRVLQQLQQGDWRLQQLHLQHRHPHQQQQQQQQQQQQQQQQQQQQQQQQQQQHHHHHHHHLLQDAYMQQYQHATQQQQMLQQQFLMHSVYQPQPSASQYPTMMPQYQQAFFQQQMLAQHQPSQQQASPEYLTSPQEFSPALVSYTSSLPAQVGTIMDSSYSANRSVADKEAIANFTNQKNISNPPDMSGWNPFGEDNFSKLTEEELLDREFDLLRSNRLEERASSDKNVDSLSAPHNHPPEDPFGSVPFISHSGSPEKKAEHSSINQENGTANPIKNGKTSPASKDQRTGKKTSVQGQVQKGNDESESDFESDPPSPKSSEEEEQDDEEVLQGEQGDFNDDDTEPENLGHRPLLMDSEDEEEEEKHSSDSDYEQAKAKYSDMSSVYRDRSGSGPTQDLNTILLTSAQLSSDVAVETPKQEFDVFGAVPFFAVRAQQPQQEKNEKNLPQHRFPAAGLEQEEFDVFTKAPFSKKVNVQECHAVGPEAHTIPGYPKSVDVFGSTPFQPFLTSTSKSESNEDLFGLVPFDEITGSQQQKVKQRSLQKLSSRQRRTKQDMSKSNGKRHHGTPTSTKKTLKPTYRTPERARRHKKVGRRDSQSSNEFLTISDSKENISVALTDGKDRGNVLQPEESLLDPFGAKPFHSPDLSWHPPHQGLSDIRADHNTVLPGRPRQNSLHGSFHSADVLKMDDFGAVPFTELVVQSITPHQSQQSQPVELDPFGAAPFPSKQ
# T12 sequence (P48426 whole entry): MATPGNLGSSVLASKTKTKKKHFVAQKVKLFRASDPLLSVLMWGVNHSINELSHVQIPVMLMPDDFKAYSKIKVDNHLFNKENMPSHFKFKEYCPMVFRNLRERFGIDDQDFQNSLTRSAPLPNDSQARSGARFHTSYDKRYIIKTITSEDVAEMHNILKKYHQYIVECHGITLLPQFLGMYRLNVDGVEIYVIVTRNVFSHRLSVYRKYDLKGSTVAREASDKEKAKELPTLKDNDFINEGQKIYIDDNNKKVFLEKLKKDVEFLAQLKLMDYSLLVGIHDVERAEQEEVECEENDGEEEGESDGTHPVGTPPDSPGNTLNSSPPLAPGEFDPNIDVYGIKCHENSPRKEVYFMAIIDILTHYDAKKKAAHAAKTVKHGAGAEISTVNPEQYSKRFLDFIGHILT
# T11 sequence (P45984 whole entry): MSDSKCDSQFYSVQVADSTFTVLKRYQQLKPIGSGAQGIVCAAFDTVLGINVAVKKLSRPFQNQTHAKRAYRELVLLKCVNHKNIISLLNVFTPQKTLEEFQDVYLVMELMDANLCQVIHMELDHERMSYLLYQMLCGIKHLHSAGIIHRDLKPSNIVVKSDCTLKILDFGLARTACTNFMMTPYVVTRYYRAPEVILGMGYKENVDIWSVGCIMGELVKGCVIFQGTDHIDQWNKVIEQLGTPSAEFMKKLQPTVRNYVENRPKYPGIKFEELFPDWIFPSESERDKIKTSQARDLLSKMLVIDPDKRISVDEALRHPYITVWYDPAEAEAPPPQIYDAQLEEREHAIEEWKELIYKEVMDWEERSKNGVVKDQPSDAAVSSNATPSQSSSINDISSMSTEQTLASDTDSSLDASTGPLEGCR
# T18 sequence (Q16513 whole entry): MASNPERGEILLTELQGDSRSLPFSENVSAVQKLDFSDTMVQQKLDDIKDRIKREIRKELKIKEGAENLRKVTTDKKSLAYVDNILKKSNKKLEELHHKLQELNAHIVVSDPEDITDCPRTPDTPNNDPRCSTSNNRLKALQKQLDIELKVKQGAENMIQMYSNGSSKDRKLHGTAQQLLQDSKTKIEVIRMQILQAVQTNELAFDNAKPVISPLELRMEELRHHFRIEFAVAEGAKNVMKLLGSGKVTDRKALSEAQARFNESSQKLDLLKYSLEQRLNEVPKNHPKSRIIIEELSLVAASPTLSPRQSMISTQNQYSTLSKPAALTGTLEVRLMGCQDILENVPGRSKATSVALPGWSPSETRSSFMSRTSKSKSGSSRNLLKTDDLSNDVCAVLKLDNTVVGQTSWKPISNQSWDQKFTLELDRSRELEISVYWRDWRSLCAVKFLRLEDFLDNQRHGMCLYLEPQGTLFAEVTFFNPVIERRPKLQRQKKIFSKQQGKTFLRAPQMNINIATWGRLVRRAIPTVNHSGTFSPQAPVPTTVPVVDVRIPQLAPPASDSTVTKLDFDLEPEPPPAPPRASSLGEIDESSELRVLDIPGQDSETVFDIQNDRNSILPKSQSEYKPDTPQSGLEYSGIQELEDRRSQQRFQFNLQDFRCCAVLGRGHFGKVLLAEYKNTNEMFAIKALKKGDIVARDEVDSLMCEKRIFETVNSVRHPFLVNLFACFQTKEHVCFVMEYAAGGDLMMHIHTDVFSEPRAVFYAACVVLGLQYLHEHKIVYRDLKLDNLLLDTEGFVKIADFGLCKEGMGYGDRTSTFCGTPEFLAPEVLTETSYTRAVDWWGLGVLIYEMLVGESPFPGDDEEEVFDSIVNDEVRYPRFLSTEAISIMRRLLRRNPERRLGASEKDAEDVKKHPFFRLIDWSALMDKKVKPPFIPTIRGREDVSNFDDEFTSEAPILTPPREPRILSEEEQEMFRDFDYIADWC
# T3 sequence (O94804 whole entry): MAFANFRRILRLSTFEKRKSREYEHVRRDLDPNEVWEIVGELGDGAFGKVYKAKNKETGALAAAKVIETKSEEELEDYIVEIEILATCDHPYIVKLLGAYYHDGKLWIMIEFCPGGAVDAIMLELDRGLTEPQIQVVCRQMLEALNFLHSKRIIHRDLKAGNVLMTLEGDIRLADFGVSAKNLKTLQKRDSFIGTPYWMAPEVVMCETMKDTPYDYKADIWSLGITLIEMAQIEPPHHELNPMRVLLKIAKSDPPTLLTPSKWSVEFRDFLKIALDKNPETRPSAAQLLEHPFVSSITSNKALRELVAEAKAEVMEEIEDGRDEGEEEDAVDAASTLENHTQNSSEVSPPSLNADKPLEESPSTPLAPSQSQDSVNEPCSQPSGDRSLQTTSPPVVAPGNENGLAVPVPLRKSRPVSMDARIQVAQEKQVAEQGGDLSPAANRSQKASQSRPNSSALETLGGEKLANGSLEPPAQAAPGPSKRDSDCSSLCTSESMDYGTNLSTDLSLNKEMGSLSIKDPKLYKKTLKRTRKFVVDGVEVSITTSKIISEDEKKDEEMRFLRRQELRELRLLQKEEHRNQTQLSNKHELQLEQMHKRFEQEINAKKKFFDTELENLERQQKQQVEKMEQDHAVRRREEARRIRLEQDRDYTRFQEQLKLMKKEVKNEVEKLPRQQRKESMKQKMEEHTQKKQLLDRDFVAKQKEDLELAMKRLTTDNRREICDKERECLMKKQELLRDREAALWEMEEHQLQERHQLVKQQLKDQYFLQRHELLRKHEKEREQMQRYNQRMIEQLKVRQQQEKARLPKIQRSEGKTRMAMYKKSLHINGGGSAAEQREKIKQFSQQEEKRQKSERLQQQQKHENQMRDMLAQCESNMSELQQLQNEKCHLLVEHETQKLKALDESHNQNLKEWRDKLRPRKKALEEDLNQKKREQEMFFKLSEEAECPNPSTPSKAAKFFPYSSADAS
structure (smiles),measurement,setting,value
"CS(=O)(=O)Nc1ccccc1Nc1nc(Nc2cccc(OCCN)c2)ncc1F [CZC25342, N-(2-(2-(3-(2-aminoethoxy)phenylamino)-5-fluoropyrimidin-4-ylamino)phenyl)methanesulfonamide]",Competition % MAP3K7,[1],85.8%
same,Competition % MPSK1,[2],92.1%
same,Competition % LOK,[3],97.7%
same,Competition % MAP3K6,[4],91.6%
same,Competition % CDC2,[5],94.3%
same,Competition % LYN,[6],83.1%
same,Competition % JAK1,[7],96.7%
same,Competition % Erk2,[8],48.5%
same,Competition % BMPR1A,[9],84.1%
same,Competition % JNK1,[10],84.3%
same,Competition % JNK2,[11],83.8%
same,Competition % PIP5K2A,[12],98.7%
same,Competition % CK2a1,[13],95.2%
same,Competition % DNAPK,[14],89.2%
same,Competition % ALK2,[15],96.4%
same,Competition % PKG1,[16],79.3%
same,Competition % PYK2,[17],96.3%
same,Competition % PKN2,[18],98%
same,Competition % MARK2,[19],93.4%
same,Competition % PIP5K2C,[20],97.3%
same,Competition % AurB,[21],93.1%
same,Competition % SLK,[22],95.2%
same,Competition % HIPK3,[23],95.4%
same,Competition % BIKE,[24],94.8%
